Source: patent publication US20080096981A1, “Antibodies against inducible TH2 cell factors” (Genaera Corporation, priority 1999, published 2008)
Entries after “also recorded” stand apart in the source; their conditions may differ.

Test system: TH2AF1
Assay: TH2AF1 expression in lung of C57BL/6 mice after intratracheal instillation of recombinant cytokines
Type: in vivo, mouse
Conditions: recombinant cytokine instilled into trachea of C57BL/6 mice, FIG. 5
Description: To confirm that the expression of IL-9 was critically related to the expression of TH2AF1 and to control for genetic background specifically, recombinant murine IL-9 was introduced into the lung of murine strain C57BL/6. Recombinant IL-9 was instilled into the trachea of anesthetized mice by addition of 50 μl of a 0.1 mg/ml IL-9 solution or vehicle alone (0.1% bovine serum albumin) daily for ten days. After ten days, the mice were euthanized and lungs extracted for either RNA expression analysis using Trizol as described by the manufacturer (Gibco-BRL) or Western blot analysis to determine levels of IL-9 instilled.
Expression of TH2AF1 RNA was measured as described in Example 3. […] Ribosomal RNAs (rRNA, lower panel) were stained using ethidium bromide (lower panel) to control for RNA loading.

Row | Molecule | induction of TH2AF1 expression in the lung (steady state mRNA)
1 | interferon gamma: recombinant TH1 associated cytokine | did not induce and not
2 | IL-9: recombinant murine IL-9, TH2 associated cytokine (protein, UniProt P15247 19-144, looked up) Interleukin-9: QRCSTTWGIRDTNYLIENLKDDPPSKCSCSGNVTSCLCLSVPTDDCTTPCYREGLLQLTNATQKSRLLPVFHRVKRIVEVLKNITCPSFSCEKPCNQTMAGNTLSFLKSLLGTFQKTEMQRQKSRP | expressed; also recorded: induced the expression
